Results taken from ChEMBL document CHEMBL3085639, “Novel camphane-based anti-tuberculosis agents with nanomolar activity” (2013).
≈ marks a conversion by molar mass, not a printed value.

System: Mycobacterium tuberculosis
Assay: Antimycobacterial activity against rifampin/isoniazid-resistant Mycobacterium tuberculosis 43 assessed as growth inhibition after 45 days by Canetti proportional method
Type: functional

Compared with `CC1(C)[C@@H]2CC[C@@]1(C)[C@H](O)[C@@H]2NC(=O)c1cccnc1`, `CC1(C)[C@@H]2CC[C@@]1(C)[C@H](O)[C@@H]2NC(=O)c1ccco1` is 2.4-fold lower in MIC: 18.2 µM (≈ 5 µg/mL) for the first, 7.59 µM (≈ 2 µg/mL) for the second.

Going from `CCNC(=O)N[C@@H]1[C@H]2CC[C@@](C)([C@@H]1O)C2(C)C` to `CC1(C)[C@@H]2CC[C@@]1(C)[C@H](O)[C@@H]2NC(=O)CCc1ccccc1`, the MIC falls from greater than 20.8 µM to 6.63 µM (≈ 2 µg/mL).

Going from `CC(=O)Oc1ccccc1C(=O)N[C@@H]1[C@H]2CC[C@@](C)([C@@H]1O)C2(C)C` to `CC1(C)[C@@H]2CC[C@@]1(C)[C@H](O)[C@@H]2NC(=O)/C=C/c1ccccc1`, the MIC falls from greater than 15.1 µM to 6.68 µM (≈ 2 µg/mL).
